Data: patent US20070176143A1, “Stable ill-defined cubic nanosized particles in a ternary aqueous phase” (YISSYM RESEARCH DEVELOPMENT COMPANY OF THE HEBREW …, priority 2003, published 2007)

Protocol: Well ordered liquid crystals have many applications all utilizing their relative structured character and the very large surface area they posses.
(§1) 2 gr of GMO were melted by heating to about 50° C. In a separate vessel, 2 gr of GMO and lycopene (0.0085 gr) were placed. The vessel was closed and its contents were mixed well with vortex until all the lycopene dissolved. 0.5 gr ethanol was added and the combination further mixed. The vessel was placed in a bath at a temperature of 45° C. 2.5 gr water were added.
2 gr of GMO were melted by heating to about 50° C. In a separate vessel, 2 gr of GMO and 0.5 gr of ethanol were placed. The vessel was closed and its contents were mixed well with vortex. The vessel was placed in a bath at 45° C.
as §1, with “carbamazepine (0.044” for “lycopene (0.0085”, “carbamazepine” for “lycopene”
2 gr of GMO were melted by heating to about 50° C. In a separate vessel, 2 gr of GMO and phytosterol (0.2 gr) were placed. […] 0.5 gr ethanol was added and the combination further mixed. The vessel was placed in a bath at a temperature of 45° C. 2.5 gr water were added.

| solubilization in an aqueous phase comprising the QL semi-ordered phase | Molecule |
| --- | --- |
| successfully solubilized | CC1=C(/C=C/C(C)=C/C=C/C(C)=C/C=C/C=C(C)/C=C/C=C(C)/C=C/C2=C(C)CCCC2(C)C)C(C)(C)CCC1 [β-carotene] |
| successfully solubilized | CC1=C[C@H](O)CC(C)(C)[C@H]1/C=C/C(C)=C/C=C/C(C)=C/C=C/C=C(C)/C=C/C=C(C)/C=C/C1=C(C)C[C@@H](O)CC1(C)C [leutin] |
| successfully solubilized | NC(=O)N1c2ccccc2C=Cc2ccccc21 [carbamazapine, reference compound] |
| all the phytosterol dissolved | phytosterol |
| successfully solubilized | CC(C)=CCC/C(C)=C/C=C/C(C)=C/C=C/C(C)=C/C=C/C=C(C)/C=C/C=C(C)/C=C/C=C(\C)CCC=C(C)C [Lycopene] |
